Tests used:
Test in all cases: In vitro antibacterial evaluation: minimum inhibitory concentration (MIC), broth dilution method
Type in all cases: cell-based
Settings in all cases: broth dilution, 18 hours at 35° C.
Enterococcus sp. = system: Enterococcus sp.
In short: (§1)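 MIC read as lowest drug level preventing visible growth. Organisms at 5×10^5 CFU/mL were exposed to a 64-0.06 μg/mL dilution series in Muller-Hinton II […] following NCCLS broth dilution standard M7-A2.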

Staphylococcus sp. = system: Staphylococcus sp.
In short: as §1

Streptococcus sp. = system: Streptococcus sp.
In short: as §1

Escherichia coli = system: Escherichia coli

CC(c1ccccc1)C1NC(=O)CNC(=O)C(CO)NC(=O)C(C(O)C2CNC(=N)N2C2OC(CO)C(O)C(O)C2O)NC(=O)C(C(O)C2CNC(=N)N2)NC(=O)C(Cc2ccc3oc(SCc4ccccc4)nc3c2)NC1=O (stereo not drawn) [Example 45, Cyclo[3-[2-(benzylthio)-1,3-benzoxazol-5-yl]alanyl-3-(2-iminoimidazolidin-4-yl)seryl-3-(3-hexopyranosyl-2-iminoimidazolidin-4-yl)serylserylglycyl-β-methylphenylalanyl]]
4 µg/mL: MIC Enterococcus faecium (GC 4557) (Enterococcus sp.; Enterococcus faecium (GC 4557)) | MIC Enterococcus faecium (GC 4557) (Enterococcus sp.) | MIC Coagulase Negative Staphylococcus (GC 4547) (Staphylococcus sp.) | MIC Coagulase Negative Staphylococcus (GC 4549) (Staphylococcus sp.) | MIC Coagulase Negative Staphylococcus (GC 6257) (Staphylococcus sp.) | MIC Staphylococcus haemolyticus (GC 4546) (Staphylococcus sp.) | MIC Streptococcus pyogenes (GC 4563) (Streptococcus sp.; Streptococcus pyogenes (GC 4563)) | MIC Streptococcus pyogenes (GC 4563) (Streptococcus sp.) | MIC Escherichia coli (GC 4560) (Escherichia coli)
32 µg/mL: MIC Enterococcus faecalis (ATCC 29212) (Enterococcus sp.; Enterococcus faecalis (ATCC 29212)) | MIC Enterococcus faecalis (GC 2691) (Enterococcus sp.; Enterococcus faecalis (GC 2691)) | MIC Enterococcus faecalis (GC 3059) (Enterococcus sp.; Enterococcus faecalis (GC 3059)) | MIC Enterococcus faecium (GC 4556) (Enterococcus sp.; Enterococcus faecium (GC 4556)) | MIC Enterococcus faecalis (ATCC 29212) (Enterococcus sp.) | MIC Enterococcus faecalis (GC 2691) (Enterococcus sp.) | MIC Enterococcus faecalis (GC 3059) (Enterococcus sp.) | MIC Enterococcus faecium (GC 4556) (Enterococcus sp.) | MIC Streptococcus pneumoniae (GC 4565) (Streptococcus sp.; Streptococcus pneumoniae (GC 4565)) | MIC Streptococcus pneumoniae (GC 4565) (Streptococcus sp.)
8 µg/mL: MIC Enterococcus avium (GC 4558) (Enterococcus sp.; Enterococcus avium (GC 4558)) | MIC Enterococcus avium (GC 4558) (Enterococcus sp.) | MIC Coagulase Negative Staphylococcus (GC 4548) (Staphylococcus sp.) | MIC Coagulase Negative Staphylococcus (GC 4551) (Staphylococcus sp.) | MIC Staphylococcus aureus SMITH (GC 4543) (Staphylococcus sp.) | MIC Staphylococcus aureus-SMITH (GC 4543) (Staphylococcus sp.; strain SMITH GC 4543)
16 µg/mL: MIC Enterococcus faecalis (GC 2242) (Enterococcus sp.; Enterococcus faecalis (GC 2242)) | MIC Enterococcus faecalis (GC 4552) (Enterococcus sp.; Enterococcus faecalis (GC 4552)) | MIC Enterococcus faecalis (GC 4553) (Enterococcus sp.; Enterococcus faecalis (GC 4553)) | MIC Enterococcus faecalis (GC 4554) (Enterococcus sp.; Enterococcus faecalis (GC 4554)) | MIC Enterococcus faecalis (GC 6189) (Enterococcus sp.; Enterococcus faecalis (GC 6189)) | MIC Enterococcus faecium (GC 2243) (Enterococcus sp.; Enterococcus faecium (GC 2243)) | MIC Enterococcus faecalis (GC 2242) (Enterococcus sp.) | MIC Enterococcus faecalis (GC 4552) (Enterococcus sp.) | MIC Enterococcus faecalis (GC 4553) (Enterococcus sp.) | MIC Enterococcus faecalis (GC 4554) (Enterococcus sp.) | MIC Enterococcus faecalis (GC 6189) (Enterococcus sp.) | MIC Enterococcus faecium (GC 2243) (Enterococcus sp.) | MIC Streptococcus agalactiae (GC 4564) (Streptococcus sp.; Streptococcus agalactiae (GC 4564)) | MIC Streptococcus pneumoniae (ATCC 6301) (Streptococcus sp.; Streptococcus pneumoniae (ATCC 6301)) | MIC Streptococcus pneumoniae (GC 1894) (Streptococcus sp.; Streptococcus pneumoniae (GC 1894)) | MIC Streptococcus agalactiae (GC 4564) (Streptococcus sp.) | MIC Streptococcus pneumoniae (ATCC 6301) (Streptococcus sp.) | MIC Streptococcus pneumoniae (GC 1894) (Streptococcus sp.) | MIC Escherichia coli (ATCC 25922) (Escherichia coli) | MIC Escherichia coli (GC 4559) (Escherichia coli)

— US8247211B2, “Glycopeptide antibiotics” (American Cyanamid Company, priority 2001, dated 2012)
